Data taken from US20240041976A1, “COMPOSITION AND USE” (priority 2020, published 2024).

How the values were obtained:
S. haemolyticus 4071 = test: microbe, parasite or virus in culture; details: for MIC of the component in combination: 4071
Description: (§1) Growth inhibition assays were performed in 96-well microtiter plates as described previously (Chi and Holo, 2018, supra). Briefly, 135 μl of TSB were dispensed in each well of a microtiter plate (according to the number of bacterial strains tested) except in the wells of the first row. The antimicrobials were diluted in TSB to working concentrations in a final volume of 285 μl and dispensed in the wells of the first row. The working concentrations were 100 μg/μl for garvicin KS, 10 μg/μl for micrococcin P1 and 1 mg/ml for penicillin G. From the first row, 150 μl of the antimicrobials were then serially diluted (two-fold dilutions) in a sequential fashion until the last row of the plate. Finally, 15 μl of a fresh O/N culture of each strain were added in the appropriate wells to reach a final volume of 150 μl in each well. The plates were then incubated at 37° C. for 24 h. The growth inhibition was expressed as minimum inhibitory concentration (MIC50), which refers to the minimum concentration of the antimicrobial needed to reduce at least 50% of the microbial growth compared to the untreated control. The MIC50 was assessed by optical density readings at 600 nm (O.D.600).
(§2) Synergistic interactions between antimicrobials were determined using the fractional inhibition concentration (FIC). The FIC values were calculated as follows: the sum of the FIC =FICa+FICb+FICc, where the FICa means MIC of A in combination/MIC of A alone, FICb means MIC of B in combination/MIC of B, and FICc means MIC of C in combination/MIC of C alone. Effects were considered as synergistic if FIC was ≤0.5 for two components mixture and ≤0.75 for three components mixture.
(§3) Bacteriocins and antimicrobial assays. […] These bacteriocins were all solubilized in 0.1% (vol/vol) trifluoracetic acid (TFA; Sigma-Aldrich). […] Cell growth inhibition assays and antimicrobial synergy determination was performed in line with Example 1.
(§4) To investigate whether there was synergy between the three bacteriocins (K1-EJ, GarKS and MP1), a checkboard antimicrobial assay was performed. The selected strains were treated for 5, 24 and 48 h with a range of concentrations of K1-EJ, GarKS and MP1 alone or in different combinations.

S. haemolyticus 4070 = test: microbe, parasite or virus in culture; details: for MIC of the component in combination: 4070
Description: as §1, §2, §3, §4

S. haemolyticus 4073 = test: microbe, parasite or virus in culture; details: for MIC of the component in combination: 4073
Description: as §1, §2, §3, §4

MRSA USA-300 = test: AAMP assay and checkerboard synergy; type: cell-based, Staphylococcus aureus; details: MRSA USA-300
Summary of the method: (§5)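 Antimicrobial activity against MRSA determined by AAMP broth dilution; synergy by two-fold checkerboard dilution of two antimicrobials with 25-fold diluted overnight MRSA culture, single agents alone giving MICs. Three-component mix: 100 μg PenG, 50 μg GarKS, 2.5 μg MP1 per well; synergy defined by fractional inhibitory concentration.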

MRSA 43484 = test: AAMP assay and checkerboard synergy; type: cell-based, Staphylococcus aureus; details: MRSA 43484
Summary of the method: as §5

MRSA ATCC 33591-lux = test: AAMP assay and checkerboard synergy; type: cell-based, Staphylococcus aureus; details: MRSA ATCC 33591-lux
Summary of the method: as §5

S. aureus LMG3264 = test: AAMP assay (MIC), single components and formulation mixture; type: cell-based, Staphylococcus aureus; details: Staphylococcus aureus, LMG3264, 24 h; read-out: MIC, single component
Summary of the method: (§6)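 FIC values defined synergy of a PenG/GarKS/MP1 mixture (100 μg, 50 μg, 2.5 μg per well) against single antimicrobials tested on the same plate, with MICs obtained by the AAMP assay.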

S. aureus LMG3266 = test: as above; type: cell-based, Staphylococcus aureus; details: Staphylococcus aureus, LMG3266, 24 h; read-out: MIC, single component
Summary of the method: as §6

S. aureus LMG3263 = test: as above; type: cell-based, Staphylococcus aureus; details: Staphylococcus aureus, LMG3263, 24 h; read-out: MIC, single component
Summary of the method: as §6

S. aureus LMG3242 = test: as above; type: cell-based, Staphylococcus aureus; details: Staphylococcus aureus, LMG3242, 24 h; read-out: MIC, single component
Summary of the method: as §6

S. aureus LMG3314 = test: as above; type: cell-based, Staphylococcus aureus; details: Staphylococcus aureus, LMG3314, 24 h; read-out: MIC, single component
Summary of the method: as §6

[1] = Staphylococcus aureus, 24 h, read-out: MIC, single antimicrobial

Structure (SMILES): C/C=C(\NC(=O)c1csc(-c2csc(-c3ccc4c(n3)-c3csc(n3)[C@H]([C@@H](C)O)NC(=O)c3csc(n3)[C@H](C(C)C)NC(=O)c3csc(n3)/C(=C/C)NC(=O)[C@H]([C@@H](C)O)NC(=O)c3csc-4n3)n2)n1)C(=O)NC[C@@H](C)O [MP1, micrococcin P1]
- MIC of the component in combination (S. haemolyticus 4071; 5 h, GarKS + MP1): 0.068 µg/mL
- MIC of the component in combination (S. haemolyticus 4071; 5 h, K1-EJ + GarKS + MP1): 0.072 µg/mL
- MIC of the component in combination (S. haemolyticus 4071; 5 h, K1-EJ + MP1): 0.042 µg/mL
- MIC of the component in combination (S. haemolyticus 4071; 24 h, GarKS + MP1): 0.63 µg/mL
- MIC of the component in combination (S. haemolyticus 4071; 24 h, K1-EJ + GarKS + MP1): 0.16 µg/mL
- MIC of the component in combination (S. haemolyticus 4071; 24 h, K1-EJ + MP1): 0.14 µg/mL
- MIC of the component in combination (S. haemolyticus 4071; 48 h, GarKS + MP1): 0.65 µg/mL
- MIC of the component in combination (S. haemolyticus 4071; 48 h, K1-EJ + GarKS + MP1): 0.33 µg/mL
- MIC of the component in combination (S. haemolyticus 4071; 48 h, K1-EJ + MP1): 0.3 µg/mL
- MIC (S. haemolyticus 4071; Staphylococcus haemolyticus, 4071, 5 h): 0.043 µg/mL
- MIC (S. haemolyticus 4071; Staphylococcus haemolyticus, 4071, 24 h): > 10 µg/mL
- MIC (S. haemolyticus 4071; Staphylococcus haemolyticus, 4071, 48 h): > 10 µg/mL
- MIC of the component in combination (S. haemolyticus 4070; 5 h, GarKS + MP1): 0.02 µg/mL
- MIC of the component in combination (S. haemolyticus 4070; 5 h, K1-EJ + GarKS + MP1): 0.032 µg/mL
- MIC of the component in combination (S. haemolyticus 4070; 5 h, K1-EJ + MP1): 0.02 µg/mL
- MIC of the component in combination (S. haemolyticus 4070; 24 h, GarKS + MP1): 0.33 µg/mL
- MIC of the component in combination (S. haemolyticus 4070; 24 h, K1-EJ + GarKS + MP1): 0.28 µg/mL
- MIC of the component in combination (S. haemolyticus 4070; 24 h, K1-EJ + MP1): 0.28 µg/mL
- MIC of the component in combination (S. haemolyticus 4070; 48 h, GarKS + MP1): 0.63 µg/mL
- MIC of the component in combination (S. haemolyticus 4070; 48 h, K1-EJ + GarKS + MP1): 0.58 µg/mL
- MIC of the component in combination (S. haemolyticus 4070; 48 h, K1-EJ + MP1): 0.6 µg/mL
- MIC (S. haemolyticus 4070; Staphylococcus haemolyticus, 4070, 5 h): 0.02 µg/mL
- MIC (S. haemolyticus 4070; Staphylococcus haemolyticus, 4070, 24 h): 0.33 µg/mL
- MIC (S. haemolyticus 4070; Staphylococcus haemolyticus, 4070, 48 h): 0.13 µg/mL
- MIC of the component in combination (S. haemolyticus 4073; 5 h, GarKS + MP1): 0.02 µg/mL
- MIC of the component in combination (S. haemolyticus 4073; 5 h, K1-EJ + GarKS + MP1): 0.033 µg/mL
- MIC of the component in combination (S. haemolyticus 4073; 5 h, K1-EJ + MP1): 0.02 µg/mL
- MIC of the component in combination (S. haemolyticus 4073; 24 h, GarKS + MP1): 0.073 µg/mL
- MIC of the component in combination (S. haemolyticus 4073; 24 h, K1-EJ + GarKS + MP1): 0.078 µg/mL
- MIC of the component in combination (S. haemolyticus 4073; 24 h, K1-EJ + MP1): 0.036 µg/mL
- MIC of the component in combination (S. haemolyticus 4073; 48 h, GarKS + MP1): 0.083 µg/mL
- MIC of the component in combination (S. haemolyticus 4073; 48 h, K1-EJ + GarKS + MP1): 0.16 µg/mL
- MIC of the component in combination (S. haemolyticus 4073; 48 h, K1-EJ + MP1): 0.01 µg/mL
- MIC (S. haemolyticus 4073; Staphylococcus haemolyticus, 4073, 5 h): 0.022 µg/mL
- MIC (S. haemolyticus 4073; Staphylococcus haemolyticus, 4073, 24 h): 0.072 µg/mL
- MIC (S. haemolyticus 4073; Staphylococcus haemolyticus, 4073, 48 h): 0.14 µg/mL
- MIC of the antimicrobial in comb. with GarKS (MRSA USA-300): 0.16 µg/mL
- MIC (MRSA USA-300; [1]): 2.5 µg/mL
- MIC of the antimicrobial in comb. with GarKS (MRSA 43484): 0.16 µg/mL
- MIC (MRSA 43484; [1]): 2.5 µg/mL
- MIC of the antimicrobial in comb. with GarKS (MRSA ATCC 33591-lux): 0.16 µg/mL
- MIC (S. aureus LMG3264): > 1.8 µg/mL
- MIC (S. aureus LMG3266): > 1.8 µg/mL
- MIC (S. aureus LMG3263): 1.8 µg/mL
- MIC (S. aureus LMG3242): 0.4 µg/mL
- MIC (S. aureus LMG3314): 0.4 µg/mL
